≈ marks a conversion by molar mass, not a printed value. Where two headings read alike, the source gives them in different places.
What was measured:
[1] = system: S. aureus FDA209P (ATCC 6538P); assay: microbe, parasite or virus in culture; format: cell-based, Staphylococcus aureus; conditions: for MIC: Staphylococcus aureus
Protocol: (§1) S. aureus Mu50 (refer to Hiramatsu, K., Hanaki H., et al., J. Antimicrob. Chemother., 1997, 40(1), 135-6) or S. aureus FDA209P (ATCC 6538P) was cultured overnight at 37° C. in 4 mL of TBS (Tryptical Soy Broth, produced by Becton Dickinson) with shaking. After completion of the culture, the cells were suspended in fresh TBS to prepare a cell suspension showing an absorbance of 0.3 at 578 nm. Then, the cell suspension was diluted 500 times with CAMHB mentioned above.
(§2) CAMHB containing each test compound at each of the aforementioned concentrations was added to each well of a 96-well plate in a volume of 50 μL/well, the aforementioned cell suspension diluted 500 time was added to the well in a volume of 50 μL/well, and stationary culture was carried out overnight at 37° C.
(§3) MIC values (mg/L) of the flavones and quinolones against the strains were measured in the same manner as that of the measurement of MIC of Example 1, except that CAMHB containing each of the aforementioned flavones and quinolones prepared in Example 2 was used instead of CAMHB containing each of the test compounds.
(§4) MIC values of the flavones and quinolone for the strains were measured in the same manners as those of Example 1, except that S. aureus Mu50 NR-1 was also used as Staphylococcus aureus in addition to S. aureus FDA209P and S. aureus Mu50, cell suspensions of the strains were prepared.
(§5) In the same manner as that of Example 1, MIC values of M-246, M-21, J-Q21, and J-Q12.1 for Staphylococcus aureus were measured. M-246 and M-21 were obtained as commercial products, and as J-Q21 and J-Q12.1, those synthesized in Examples 6 and 7 were used.

[2] = system: S. aureus Mu50; assay: microbe, parasite or virus in culture; format: cell-based, Staphylococcus aureus; conditions: for MIC ratio: (MIC value for S. aureus FDA209P)/(MIC value for S. aureus Mu50); for MIC: Staphylococcus aureus; for MIC (mg/L) Mu50: Example 1, Tables 1 to 10
Protocol: as §1, §2, §3, §4, §5

[3] = system: S. aureus Mu50 NR1-1; assay: MIC by broth microdilution, S. aureus Mu50 NR1-1; format: cell-based; conditions: Staphylococcus aureus, MU50NR11; Example 3, Table 13; read-out: MIC (mg/L) Mu50 NR1-1 (S80F, w)
Protocol: as §4
S. aureus Mu50 NR1-1 mentioned in Table 13 is a strain selected stepwise from the clinically isolated S. aureus Mu50 strain with deoxynybomycin, and it has a topoisomerase IV encoded by parC in which a […] (see, Hiramatsu K. et al., J. Antimicrob. Agents, 2012, June; 39 (6), 478-85).
In Table 13, the descriptions in the parentheses after the strains indicate the mutated amino acid residue and its position, as represented by (the mutation of topoisomerase IV resulting from the mutation of parCand the mutation of DNA gyrase resulting from the mutation of gyrA). The character “w” means wild-type, representing without mutation.

[4] = Example 1, Tables 1 to 10, read-out: MIC (mg/L) FDA209P
[5] = Example 2, Table 12, read-out: MIC (mg/L) S. aureus FDA209P
[6] = Example 3, Table 13, read-out: MIC (mg/L) FDA209P (w, w)
[7] = MU50, read-out: MIC (mg/L) Mu50, Example 1, Tables 1 to 10
[8] = MU50, read-out: MIC (mg/L) S. aureus Mu50, Example 2, Table 12
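Throughout, for MIC ratio: ratio is FDA209P MIC divided by Mu50 MIC.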

| SMILES | MIC [1, 4] [mg/L] | MIC [2, 7] [mg/L] | MIC (mg/L) FDA209P ([1]; Example 1, Tables 1 to 10) [mg/L] | MIC (mg/L) Mu50 [2] [mg/L] | also measured |
| --- | --- | --- | --- | --- | --- |
| O.O=c1c(O)c(-c2ccc(O)c(O)c2)oc2cc(O)cc(O)c12 [No. 1, 3,3′,4′,5,7-Pentahydroxyflavone Hydrate] | 64 | ≤ 32 |  |  | MIC [1, 5]: 64 mg/L; MIC [1, 6]: 64 mg/L; MIC ratio [2]: 2; MIC [2, 8]: 32 mg/L; MIC [3]: 64 mg/L |
| O.O=c1c(O)c(-c2ccc(O)cc2)oc2cc(O)cc(O)c12 [No. 4, 3,4′,5,7-Tetrahydroxyflavone Hydrate] | 16 | 8 |  |  | MIC [1, 5]: 16 mg/L; MIC [1, 6]: 16 mg/L; MIC ratio [2]: 2; MIC [2, 8]: 8 mg/L; MIC [3]: 16 mg/L |
| O=c1cc(-c2ccc(O)c(O)c2)oc2cc(O)cc(O)c12 [No. 6, 3′,4′,5,7-Tetrahydroxyflavone] | 32 (≈ 112 µM) |  |  |  | MIC [1, 5]: 32 mg/L (≈ 112 µM); MIC [1, 6]: 32 mg/L (≈ 112 µM); MIC ratio [2]: 4; MIC [2, 8]: 8 mg/L (≈ 27.9 µM); MIC [3]: 32 mg/L (≈ 112 µM) |
| COc1ccc2c(=O)cc(-c3ccccc3)oc2c1 [No. 15, 7-Methoxyflavone] | 128 (≈ 507 µM) | 32 (≈ 127 µM) |  |  | MIC [1, 5]: 128 mg/L (≈ 507 µM); MIC [1, 6]: 128 mg/L (≈ 507 µM); MIC ratio [2]: 4; MIC [2, 8]: 32 mg/L (≈ 127 µM); MIC [3]: 128 mg/L (≈ 507 µM) |
| O=c1c(-c2ccc(OC3OC(CO)C(O)C(O)C3O)cc2)coc2cc(O)cc(O)c12 (stereo not shown) [compound 81] |  |  | >128 | >128 |  |
| CC(=O)Oc1ccc(-c2coc3cc(OC(C)=O)cc(OC(C)=O)c3c2=O)cc1 [compound 82] | > 128 | > 128 |  |  |  |
| Cc1oc2cc(O)cc(O)c2c(=O)c1-c1ccc2c(c1)OCCCO2 [compound 83] | 128 (≈ 376 µM) | 128 (≈ 376 µM) |  |  |  |
| COc1cc(OC)c2c(=O)c(-c3ccc(OC4OC(CO)C(O)C(O)C4O)cc3)coc2c1 (stereo not shown) [compound 85] |  |  | >128 | >128 |  |
| Cc1cc2c(cc1-c1c(C)oc3cc(O)cc(O)c3c1=O)OCCO2 [compound 87] |  |  | 64 (≈ 188 µM) | 128 (≈ 376 µM) |  |
| COc1cc(OC)c2c(=O)c(-c3cc4c(cc3C)OCCO4)c(C)oc2c1 [compound 88] |  |  | 128 (≈ 347 µM) | >128 |  |
| CC(=O)Oc1cc(OC(C)=O)c2c(=O)c(-c3cc4c(cc3C)OCCO4)c(C)oc2c1 [compound 89] |  |  | 128 (≈ 302 µM) | 128 (≈ 302 µM) |  |
| CCOC(=O)c1oc2cc(OC)cc(O)c2c(=O)c1-c1ccc(OC)cc1 [compound 91] | > 128 | > 128 |  |  |  |
| COc1ccc(-c2c(C(=O)O)oc3cc(OC)cc(OC)c3c2=O)cc1 [compound 92] | > 128 | > 128 |  |  |  |
| COc1cc(-c2coc3cc(O)c(OC)c(O)c3c2=O)cc(O)c1OC [compound 93] | 128 (≈ 355 µM) | 128 (≈ 355 µM) |  |  |  |
| COc1ccc(-c2coc3cc(O)c(OC)c(O)c3c2=O)cc1 [compound 94] | 128 (≈ 407 µM) | 128 (≈ 407 µM) |  |  |  |
| O=C(O)C1OC(Oc2ccc(-c3coc4cc(O)cc(O)c4c3=O)cc2)C(O)C(O)C1O (stereo not shown) [compound 95] |  |  | 128 (≈ 287 µM) | >128 |  |
| COc1cc(OC2OC(CO)C(O)C(O)C2O)c2c(=O)c(-c3ccc(O)cc3)coc2c1 (stereo not shown) [compound 96] |  |  | 128 (≈ 287 µM) | 128 (≈ 287 µM) |  |
| COc1c2c(cc3occ(-c4ccc(O)cc4)c(=O)c13)OCO2 [compound 97] |  |  | 128 (≈ 410 µM) | 128 (≈ 410 µM) |  |
| COc1cc(OC)c(-c2coc3cc(O)cc(O)c3c2=O)cc1OC [compound 98] | 128 (≈ 372 µM) | > 128 |  |  |  |
| COc1c(O)cc2occ(-c3ccc(O)cc3)c(=O)c2c1O [compound 100] | 128 (≈ 426 µM) | 128 (≈ 426 µM) |  |  |  |
| O=c1c(-c2ccc(O)cc2O)coc2cc(O)cc(O)c12 [compound 101] | 128 (≈ 447 µM) | 128 (≈ 447 µM) |  |  |  |
| O=C(O)COc1cc(O)c2c(=O)c(-c3ccc4c(c3)OCCO4)coc2c1 [compound 102] | 128 (≈ 346 µM) | 128 (≈ 346 µM) |  |  |  |
| CC(=O)Oc1cc(OC(C)=O)c2c(=O)c(-c3ccc4c(c3)OCCO4)coc2c1 [compound 104] | 128 (≈ 323 µM) | 64 (≈ 161 µM) |  |  |  |
| CC1(C)C=Cc2c(c3c(c4c2OCC(c2ccc(O)cc2)C4=O)OC(C)(C)C=C3)O1 (stereo not shown) [compound 105] | 128 (≈ 316 µM) | 128 (≈ 316 µM) |  |  |  |

Reference: patent publication US20150322033A1, “ANTIBACTERIAL AGENT” (priority 2012, published 2015)
